Measurements as given in the NIST ThermoML archive (doi:10.1021/acs.jced.8b00601).
± gives the expanded uncertainty stated by the source.

Assay: activity coefficient (dimensionless); of the first substance listed, at infinite dilution; xn = mol fraction of the nth substance listed
Conditions: 101.33 kPa, Liquid, Chromatography, x1 = 0

| SMILES | activity coefficient (313 K) | activity coefficient (323 K) | activity coefficient (333 K) | activity coefficient (343 K) |
| --- | --- | --- | --- | --- |
| Cc1ccc(C)cc1 [1,4-dimethylbenzene] + O=S(=O)([N-]S(=O)(=O)C(F)(F)F)C(F)(F)F.O=S(=O)([N-]S(=O)(=O)C(F)(F)F)C(F)(F)F.O=S(=O)([N-]S(=O)(=O)C(F)(F)F)C(F)(F)F.c1ccc2cc(-n3cc[n+](Cc4cc(C[n+]5ccn(-c6ccc7ccccc7c6)c5)cc(C[n+]5ccn(-c6ccc7ccccc7c6)c5)c4)c3)ccc2c1 | 4.47 ± 0.56 | 2.94 ± 0.39 | 2.09 ± 0.26 | 1.51 ± 0.2 |
| c1ccccc1 [benzene] + O=S(=O)([N-]S(=O)(=O)C(F)(F)F)C(F)(F)F.O=S(=O)([N-]S(=O)(=O)C(F)(F)F)C(F)(F)F.O=S(=O)([N-]S(=O)(=O)C(F)(F)F)C(F)(F)F.c1ccc2cc(-n3cc[n+](Cc4cc(C[n+]5ccn(-c6ccc7ccccc7c6)c5)cc(C[n+]5ccn(-c6ccc7ccccc7c6)c5)c4)c3)ccc2c1 | 2.58 ± 0.3 | 1.88 ± 0.23 | 1.35 ± 0.17 | 0.994 ± 0.12 |
| CCOC(C)=O [ethyl acetate] + O=S(=O)([N-]S(=O)(=O)C(F)(F)F)C(F)(F)F.O=S(=O)([N-]S(=O)(=O)C(F)(F)F)C(F)(F)F.O=S(=O)([N-]S(=O)(=O)C(F)(F)F)C(F)(F)F.c1ccc2cc(-n3cc[n+](Cc4cc(C[n+]5ccn(-c6ccc7ccccc7c6)c5)cc(C[n+]5ccn(-c6ccc7ccccc7c6)c5)c4)c3)ccc2c1 | 1.02 ± 0.11 | 0.776 ± 0.093 | 0.544 ± 0.068 | 0.443 ± 0.054 |
| O=C1CCCC1 [cyclopentanone] + O=S(=O)([N-]S(=O)(=O)C(F)(F)F)C(F)(F)F.O=S(=O)([N-]S(=O)(=O)C(F)(F)F)C(F)(F)F.O=S(=O)([N-]S(=O)(=O)C(F)(F)F)C(F)(F)F.c1ccc2cc(-n3cc[n+](Cc4cc(C[n+]5ccn(-c6ccc7ccccc7c6)c5)cc(C[n+]5ccn(-c6ccc7ccccc7c6)c5)c4)c3)ccc2c1 | 0.303 ± 0.039 | 0.296 ± 0.04 | 0.22 ± 0.035 | 0.211 ± 0.034 |
| CCCC=O [butanal] + O=S(=O)([N-]S(=O)(=O)C(F)(F)F)C(F)(F)F.O=S(=O)([N-]S(=O)(=O)C(F)(F)F)C(F)(F)F.O=S(=O)([N-]S(=O)(=O)C(F)(F)F)C(F)(F)F.c1ccc2cc(-n3cc[n+](Cc4cc(C[n+]5ccn(-c6ccc7ccccc7c6)c5)cc(C[n+]5ccn(-c6ccc7ccccc7c6)c5)c4)c3)ccc2c1 | 0.425 ± 0.049 | 0.415 ± 0.048 | 0.396 ± 0.047 | 0.324 ± 0.043 |
| CC(C)O [propan-2-ol] + O=S(=O)([N-]S(=O)(=O)C(F)(F)F)C(F)(F)F.O=S(=O)([N-]S(=O)(=O)C(F)(F)F)C(F)(F)F.O=S(=O)([N-]S(=O)(=O)C(F)(F)F)C(F)(F)F.c1ccc2cc(-n3cc[n+](Cc4cc(C[n+]5ccn(-c6ccc7ccccc7c6)c5)cc(C[n+]5ccn(-c6ccc7ccccc7c6)c5)c4)c3)ccc2c1 | 1.89 ± 0.24 | 1.24 ± 0.16 | 0.965 ± 0.11 | 0.693 ± 0.091 |
| c1ccncc1 [pyridine] + O=S(=O)([N-]S(=O)(=O)C(F)(F)F)C(F)(F)F.O=S(=O)([N-]S(=O)(=O)C(F)(F)F)C(F)(F)F.O=S(=O)([N-]S(=O)(=O)C(F)(F)F)C(F)(F)F.c1ccc2cc(-n3cc[n+](Cc4cc(C[n+]5ccn(-c6ccc7ccccc7c6)c5)cc(C[n+]5ccn(-c6ccc7ccccc7c6)c5)c4)c3)ccc2c1 | – | 0.164 ± 0.031 | 0.173 ± 0.032 | 0.198 ± 0.033 |
| CCCCCCCC [octane] + O=S(=O)([N-]S(=O)(=O)C(F)(F)F)C(F)(F)F.O=S(=O)([N-]S(=O)(=O)C(F)(F)F)C(F)(F)F.O=S(=O)([N-]S(=O)(=O)C(F)(F)F)C(F)(F)F.c1ccc2cc(-n3cc[n+](Cc4cc(C[n+]5ccn(-c6ccc7ccccc7c6)c5)cc(C[n+]5ccn(-c6ccc7ccccc7c6)c5)c4)c3)ccc2c1 | 28.4 ± 3.5 | 19.4 ± 2.5 | 14.1 ± 1.8 | 9.43 ± 1.4 |
| CCCC(C)=O [pentan-2-one] + O=S(=O)([N-]S(=O)(=O)C(F)(F)F)C(F)(F)F.O=S(=O)([N-]S(=O)(=O)C(F)(F)F)C(F)(F)F.O=S(=O)([N-]S(=O)(=O)C(F)(F)F)C(F)(F)F.c1ccc2cc(-n3cc[n+](Cc4cc(C[n+]5ccn(-c6ccc7ccccc7c6)c5)cc(C[n+]5ccn(-c6ccc7ccccc7c6)c5)c4)c3)ccc2c1 | 0.54 ± 0.062 | 0.441 ± 0.053 | 0.365 ± 0.045 | 0.341 ± 0.042 |
| Cc1cccc(C)c1 [1,3-dimethylbenzene] + O=S(=O)([N-]S(=O)(=O)C(F)(F)F)C(F)(F)F.O=S(=O)([N-]S(=O)(=O)C(F)(F)F)C(F)(F)F.O=S(=O)([N-]S(=O)(=O)C(F)(F)F)C(F)(F)F.c1ccc2cc(-n3cc[n+](Cc4cc(C[n+]5ccn(-c6ccc7ccccc7c6)c5)cc(C[n+]5ccn(-c6ccc7ccccc7c6)c5)c4)c3)ccc2c1 | 3.42 ± 0.42 | 2.31 ± 0.31 | 1.52 ± 0.19 | 1.26 ± 0.14 |
| ClCCCl [1,2-dichloroethane] + O=S(=O)([N-]S(=O)(=O)C(F)(F)F)C(F)(F)F.O=S(=O)([N-]S(=O)(=O)C(F)(F)F)C(F)(F)F.O=S(=O)([N-]S(=O)(=O)C(F)(F)F)C(F)(F)F.c1ccc2cc(-n3cc[n+](Cc4cc(C[n+]5ccn(-c6ccc7ccccc7c6)c5)cc(C[n+]5ccn(-c6ccc7ccccc7c6)c5)c4)c3)ccc2c1 | 0.758 ± 0.079 | 0.738 ± 0.077 | 0.677 ± 0.071 | 0.679 ± 0.071 |
| CCCO [propan-1-ol] + O=S(=O)([N-]S(=O)(=O)C(F)(F)F)C(F)(F)F.O=S(=O)([N-]S(=O)(=O)C(F)(F)F)C(F)(F)F.O=S(=O)([N-]S(=O)(=O)C(F)(F)F)C(F)(F)F.c1ccc2cc(-n3cc[n+](Cc4cc(C[n+]5ccn(-c6ccc7ccccc7c6)c5)cc(C[n+]5ccn(-c6ccc7ccccc7c6)c5)c4)c3)ccc2c1 | 1.4 ± 0.16 | 1.1 ± 0.13 | 0.842 ± 0.094 | 0.73 ± 0.079 |
| ClC(Cl)(Cl)Cl [tetrachloromethane] + O=S(=O)([N-]S(=O)(=O)C(F)(F)F)C(F)(F)F.O=S(=O)([N-]S(=O)(=O)C(F)(F)F)C(F)(F)F.O=S(=O)([N-]S(=O)(=O)C(F)(F)F)C(F)(F)F.c1ccc2cc(-n3cc[n+](Cc4cc(C[n+]5ccn(-c6ccc7ccccc7c6)c5)cc(C[n+]5ccn(-c6ccc7ccccc7c6)c5)c4)c3)ccc2c1 | 4.72 ± 0.51 | 4.27 ± 0.47 | 3.29 ± 0.38 | 2.6 ± 0.31 |
| C1COCCO1 [1,4-dioxane] + O=S(=O)([N-]S(=O)(=O)C(F)(F)F)C(F)(F)F.O=S(=O)([N-]S(=O)(=O)C(F)(F)F)C(F)(F)F.O=S(=O)([N-]S(=O)(=O)C(F)(F)F)C(F)(F)F.c1ccc2cc(-n3cc[n+](Cc4cc(C[n+]5ccn(-c6ccc7ccccc7c6)c5)cc(C[n+]5ccn(-c6ccc7ccccc7c6)c5)c4)c3)ccc2c1 | 0.481 ± 0.06 | 0.34 ± 0.047 | 0.276 ± 0.038 | 0.262 ± 0.037 |
| CC#N [acetonitrile] + O=S(=O)([N-]S(=O)(=O)C(F)(F)F)C(F)(F)F.O=S(=O)([N-]S(=O)(=O)C(F)(F)F)C(F)(F)F.O=S(=O)([N-]S(=O)(=O)C(F)(F)F)C(F)(F)F.c1ccc2cc(-n3cc[n+](Cc4cc(C[n+]5ccn(-c6ccc7ccccc7c6)c5)cc(C[n+]5ccn(-c6ccc7ccccc7c6)c5)c4)c3)ccc2c1 | 0.263 ± 0.038 | 0.217 ± 0.035 | 0.189 ± 0.033 | 0.181 ± 0.032 |
| CCO [ethanol] + O=S(=O)([N-]S(=O)(=O)C(F)(F)F)C(F)(F)F.O=S(=O)([N-]S(=O)(=O)C(F)(F)F)C(F)(F)F.O=S(=O)([N-]S(=O)(=O)C(F)(F)F)C(F)(F)F.c1ccc2cc(-n3cc[n+](Cc4cc(C[n+]5ccn(-c6ccc7ccccc7c6)c5)cc(C[n+]5ccn(-c6ccc7ccccc7c6)c5)c4)c3)ccc2c1 | 0.927 ± 0.1 | 0.724 ± 0.082 | 0.611 ± 0.066 | 0.606 ± 0.064 |
| C1CCCCC1 [cyclohexane] + O=S(=O)([N-]S(=O)(=O)C(F)(F)F)C(F)(F)F.O=S(=O)([N-]S(=O)(=O)C(F)(F)F)C(F)(F)F.O=S(=O)([N-]S(=O)(=O)C(F)(F)F)C(F)(F)F.c1ccc2cc(-n3cc[n+](Cc4cc(C[n+]5ccn(-c6ccc7ccccc7c6)c5)cc(C[n+]5ccn(-c6ccc7ccccc7c6)c5)c4)c3)ccc2c1 | 11.7 ± 1.3 | 9.16 ± 1 | 8.09 ± 0.9 | 6.25 ± 0.75 |
| Cc1ccccc1 [toluene] + O=S(=O)([N-]S(=O)(=O)C(F)(F)F)C(F)(F)F.O=S(=O)([N-]S(=O)(=O)C(F)(F)F)C(F)(F)F.O=S(=O)([N-]S(=O)(=O)C(F)(F)F)C(F)(F)F.c1ccc2cc(-n3cc[n+](Cc4cc(C[n+]5ccn(-c6ccc7ccccc7c6)c5)cc(C[n+]5ccn(-c6ccc7ccccc7c6)c5)c4)c3)ccc2c1 | 3.82 ± 0.43 | 3.05 ± 0.35 | 2.42 ± 0.29 | 1.69 ± 0.23 |
| CCCCCCC [heptane] + O=S(=O)([N-]S(=O)(=O)C(F)(F)F)C(F)(F)F.O=S(=O)([N-]S(=O)(=O)C(F)(F)F)C(F)(F)F.O=S(=O)([N-]S(=O)(=O)C(F)(F)F)C(F)(F)F.c1ccc2cc(-n3cc[n+](Cc4cc(C[n+]5ccn(-c6ccc7ccccc7c6)c5)cc(C[n+]5ccn(-c6ccc7ccccc7c6)c5)c4)c3)ccc2c1 | 12.2 ± 1.3 | 10.1 ± 1.2 | 6.77 ± 0.82 | 6.03 ± 0.65 |
| Cc1ccccc1C [1,2-dimethylbenzene] + O=S(=O)([N-]S(=O)(=O)C(F)(F)F)C(F)(F)F.O=S(=O)([N-]S(=O)(=O)C(F)(F)F)C(F)(F)F.O=S(=O)([N-]S(=O)(=O)C(F)(F)F)C(F)(F)F.c1ccc2cc(-n3cc[n+](Cc4cc(C[n+]5ccn(-c6ccc7ccccc7c6)c5)cc(C[n+]5ccn(-c6ccc7ccccc7c6)c5)c4)c3)ccc2c1 | 3.35 ± 0.41 | 2.25 ± 0.3 | 1.54 ± 0.2 | 1.04 ± 0.14 |
